Data reported in patent publication US8722580B2, “Agent for inhibiting cytokinin signaling” (Sumitomo Chemical Company, Limited, priority 2006, dated 2014).

Tests used:
rice [1] = test: Rice stand establishment-promoting activity by seed treatment, direct seeding on flooded field (Example 20); assay type: in vivo, Oryza sativa japonica Nipponbare; conditions: for Stand establishment rate (%) on day 23 after sowing: Blank slurry 76.7
Experimental: (§1) Seeds of rice (Oryza sativa japonica Nipponbare) were treated with the chemical substance Ic3-1 (which inhibits intracellular signaling from a plant-derived cytokinin receptor of a cell) selected in Example 7, and were grown under direct seeding conditions. Then, a stand establishment rate was examined, and thus a rice stand establishment-promoting activity of the chemical substance was evaluated.
(§2) First, a Blank slurry solution containing 5% (v/v) Color Coat Red (manufactured by BECKER UNDERWOOD), 5% (v/v) CF-Clear (manufactured by BECKER UNDERWOOD) and 0.42% (v/v) Maxim-XL (manufactured by Syngenta) was prepared. In 1.3 ml of the Blank slurry solution, 6.25 mg, 12.5 mg, 25 mg or 50 mg of the chemical substance Ic3-3 was dissolved. Seeds were treated with the solution in an amount of 1.3 ml per 50 g of seeds (each corresponding to 0.125 mg, 0.25 mg, 0.5 mg and 1 mg/g seed) using a Hege11 seed treating device (manufactured by Hans-Ulrich Hege).
Then, a concrete pot (50 cm×50 cm) placed outdoors was flooded at a flooding depth of 5 cm, and 50 seeds per pot were sown. On day 23 after sowing, the number of seedlings whose leaf apex appeared on the water surface was examined. […] [Stand establishment rate (%)]=[Number of seedlings whose leaf apex appears on the water surface]/[Number of sown seeds]×100

cytokinin receptor CRE1 = target: T1, cytokinin receptor CRE1 (Arabidopsis thaliana, UniProt Q9C5U0, S567G/T1018A); test: Inhibition of intracellular signaling from plant-derived cytokinin receptor, growth of transformed yeast cell TM182-CRE1; assay type: cell-based; conditions: trans-zeatin 0.6 ppm, chemical substance 2 ppm
T1 construct: expressed in transfected cells; host or cells: Saccharomyces cerevisiae TM182 (sln1Δ) transformed with p415CYC-CRE1
How it was run: (§3)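 Relative growth % is derived from blank-corrected OD600 against DMSO wells after 24 h at 30° C, with inhibition given as 100 minus that value. Cells were set to OD600=0.1 with 0.6 ppm trans-zeatin and 2 ppm test substance: CRE1 strain in DOLU+Glu, p415CYC1 toxicity control in DOLU+Gal.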

Arabidopsis thaliana = test: Root growth-promoting activity test (Example 9); assay type: in vivo; conditions: test final concentration 5 ppm (concentration with highest root growth rate); main root length vs control section, 22° C., 10 days
How it was run: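 Compounds at 0.001–10 ppm final (added in DMSO) were mixed into Enshi medium, and Arabidopsis thaliana seeds were cultured in it for 10 days at 22° C under light. Root growth rate (%) is the treated mean main-root length divided by the control mean, from eight repeats.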

[2] = test system: transformed cell TM182-p415CYC1; test: Control growth test with transformed yeast cell TM182-p415CYC1 (toxicity to yeast); assay type: cell-based; conditions: trans-zeatin 0.6 ppm; chemical substance 2 ppm; 30° C., 24 hours; turbidity OD 600
How it was run: as §3

rice [3] = test: Root growth-promoting activity using rice, soil drenching (Example 14); assay type: in vivo, Oriza sativa japonica Nipponbare; conditions: soil drenched with 10 ppm solution, 500 μl per well
Experimental: With respect to the chemical substance Ic3-3, a root growth promoting activity was measured using rice (Oriza sativa japonica Nipponbare).
First, an acetone solution containing a predetermined concentration of the chemical substance was prepared and then 100-fold diluted with distilled water to 10 ppm (containing 1% acetone) to obtain a chemical substance solution. Seeds were immersed in water for 2 days to stimulate germination. The seeds were sowed in a 288-well plug tray (3 seeds per well), and then soil was drenched with the above chemical substance solution in an amount of 500 μl per well. After covering with soil, the plug tray was put in a plastic bag and then placed in an air-conditioned room (dark place at 30° C.) for 3 days. After removing the plastic bag from the plug tray, the plug tray was placed under light conditions of light/dark=16 h/8 h for 4 days while the bottom was irrigated at all times. Thus, rice seeds were cultivated to obtain grown rice. The resulting rice roots were washed and the total root length was analyzed using a root length measurement image analyzer WinRHIZO (manufactured by Regent Instruments).

rice [4] = test: Rice tillering-promoting activity by seed treatment, direct seeding on dry field (Example 21); assay type: in vivo, Oryza sativa japonica Nipponbare; conditions: seed treatment 0.25 mg/g seed; day 30 after sowing
Experimental: as §1, with “on dry field-conditions.” for “conditions.”, “the number of tillers” for “a stand establishment rate”, “tillering-promoting” for “rice stand establishment-promoting”
as §2, with “solution,” for “solution, 6.25 mg,”, “12.5” for “12.5 mg, 25 mg or 50”, “(corresponding” for “(each corresponding”, “to” for “to 0.125 mg,”, “0.25” for “0.25 mg, 0.5 mg and 1”
The, 20 seeds per pot of the treated seeds were sown in a 1/5000a Wagner pot at a depth of 1 cm and then cultured in a greenhouse. On day 10 after sowing, water was charged at a flooding depth of 5 cm and culture was continued. On day 30 after sowing, the number of tillers was examined.

T1 sequence (Q9C5U0 24-1080 S567G/T1018A): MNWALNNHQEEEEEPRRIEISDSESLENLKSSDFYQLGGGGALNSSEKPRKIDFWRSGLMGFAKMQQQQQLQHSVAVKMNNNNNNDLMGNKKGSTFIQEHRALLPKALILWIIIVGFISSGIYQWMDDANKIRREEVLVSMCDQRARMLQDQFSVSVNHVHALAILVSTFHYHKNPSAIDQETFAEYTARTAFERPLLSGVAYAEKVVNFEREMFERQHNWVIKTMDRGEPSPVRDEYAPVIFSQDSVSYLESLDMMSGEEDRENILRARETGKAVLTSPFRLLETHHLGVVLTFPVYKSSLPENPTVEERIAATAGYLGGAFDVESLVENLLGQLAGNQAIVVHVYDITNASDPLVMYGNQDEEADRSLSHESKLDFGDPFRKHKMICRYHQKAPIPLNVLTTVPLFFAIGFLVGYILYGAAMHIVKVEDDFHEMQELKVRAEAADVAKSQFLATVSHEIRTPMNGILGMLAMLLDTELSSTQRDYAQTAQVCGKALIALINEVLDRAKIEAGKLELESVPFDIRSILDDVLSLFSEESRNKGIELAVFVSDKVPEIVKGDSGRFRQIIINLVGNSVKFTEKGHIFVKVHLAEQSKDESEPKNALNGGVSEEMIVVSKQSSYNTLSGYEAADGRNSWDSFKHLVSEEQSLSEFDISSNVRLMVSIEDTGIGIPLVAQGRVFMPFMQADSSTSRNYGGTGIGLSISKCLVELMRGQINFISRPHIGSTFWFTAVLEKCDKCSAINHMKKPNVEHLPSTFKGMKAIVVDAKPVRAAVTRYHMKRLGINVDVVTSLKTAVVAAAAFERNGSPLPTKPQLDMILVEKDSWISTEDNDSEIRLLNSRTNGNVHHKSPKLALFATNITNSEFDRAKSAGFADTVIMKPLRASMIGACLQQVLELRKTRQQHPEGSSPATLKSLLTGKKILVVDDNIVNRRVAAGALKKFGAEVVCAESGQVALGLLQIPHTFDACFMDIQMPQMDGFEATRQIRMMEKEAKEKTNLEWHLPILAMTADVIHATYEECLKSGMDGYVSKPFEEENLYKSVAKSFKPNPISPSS

Compound: OCCCNc1nc(-c2ccccc2)c2cc(Cl)ccc2n1 [Ic3-3]
- Stand establishment rate (%) on day 23 after sowing (rice [1]; seed treatment 0.125 mg/g seed): 87.3%
- Stand establishment rate (%) on day 23 after sowing (rice [1]; seed treatment 0.25 mg/g seed): 82.7%
- Stand establishment rate (%) on day 23 after sowing (rice [1]; seed treatment 0.5 mg/g seed): 79.3%
- Stand establishment rate (%) on day 23 after sowing (rice [1]; seed treatment 1 mg/g seed): 84.0%
- stand establishment rate compared with the Blank slurry-treated section (rice [1]; seed treatment concentration 0.125 to 1 mg/g seed, day 23 after sowing): a stand establishment rate was increased
- Relative growth rate (%) in test section of test substance to control section, Transformed cell TM182-CRE1 (cytokinin receptor CRE1; 30° C., 24 hours, turbidity OD 600): 1.4%
- Activity (%) of test substance for inhibiting intracellular signaling from plant-derived cytokinin receptor of cell (cytokinin receptor CRE1; = 100 − relative growth rate of TM182-CRE1): 98.6%
- Root growth-promoting activity (root growth rate) (Arabidopsis thaliana): 163.4%
- Relative growth rate (%) in test section of test substance to control section, Transformed cell TM182-p415CYC1 [2]: 108.6%
- root growth compared with the control section (UTC) (rice [3]): root growth was remarkably promoted
- total root length (image analyzer WinRHIZO) (rice [3]): an increase of the total root length
- number of tillers per stock compared with the Blank slurry-treated section (rice [4]): the number of tillers per stock was increased
